Values after ≈ are worked out from the molar mass of the structure shown. Active and inactive are the calls of the source. The rule behind the calls is not given here.
Tests used:
Assay type in all cases: functional
[1] = test system: Chromobacterium violaceum; assay: Antibacterial activity against Chromobacterium violaceum MTCC 2656 assessed as growth arrest at 37 degC for 24 hr; settings: MTCC 2656, 24 h
Staphylococcus aureus [2] = assay: Antibacterial activity against Staphylococcus aureus MTCC 96 assessed as inhibition zones at 300 ug/disc at 37 degC for 24 hr; settings: MTCC 96, 24 h, read-out: IZ
Pseudomonas aeruginosa [3] = assay: Antibacterial activity against Pseudomonas aeruginosa MTCC 741 assessed as growth arrest at 37 degC for 24 hr; settings: MTCC 741, 24 h
Aspergillus fumigatus [4] = assay: Antifungal activity against Aspergillus fumigatus HIC 6094 assessed as growth inhibition at 37 degC for 48 hr
Klebsiella aerogenes [5] = assay: Antibacterial activity against Enterobacter aerogenes MTCC 39 assessed as growth arrest at 37 degC for 24 hr; settings: MTCC 39, 24 h
Trichophyton rubrum [6] = assay: Antifungal activity against Trichophyton rubrum IFO 9185 assessed as growth inhibition at 300 ug/disk at 37 degC for 48 hr; settings: IFO 9185, 48 h, read-out: IZ
Aspergillus fumigatus [7] = assay: Antifungal activity against Aspergillus fumigatus HIC 6094 assessed as growth inhibition at 300 ug/disc at 37 degC for 48 hr; settings: HIC 6094, 48 h, read-out: IZ
Candida albicans [8] = assay: Antifungal activity against Candida albicans ATCC 10231 assessed as growth inhibition at 300 ug/disk at 37 degC for 48 hr; settings: ATCC 10231, 48 h, read-out: IZ
Bacillus subtilis [9] = assay: Antibacterial activity against Bacillus subtilis MTCC 441 assessed as growth arrest at 37 degC for 24 hr; settings: MTCC 441, 24 h
[10] = test system: Ditylenchus myceliophagus; assay: Nematicidal activity against Ditylenchus myceliophagus assessed as immobility; settings: read-out: LD50 (the source's name)
[11] = test system: Trichophyton mentagrophytes; assay: Antifungal activity against Trichophyton mentagrophytes IFO 40996 assessed as growth inhibition at 300 ug/disc at 37 degC for 48 hr; settings: IFO 40996, 48 h, read-out: IZ
[12] = test system: Lysinibacillus sphaericus; assay: Antibacterial activity against Lysinibacillus sphaericus MTCC 11 assessed as growth arrest at 37 degC for 24 hr; settings: MTCC 11, 24 h
Staphylococcus aureus [13] = assay: Antibacterial activity against Staphylococcus aureus MTCC 96 assessed as growth arrest at 37 degC for 24 hr; settings: MTCC 96, 24 h
[14] = test system: Lysinibacillus sphaericus; assay: Antibacterial activity against Lysinibacillus sphaericus MTCC 11 assessed as inhibition zones at 300 ug/disk at 37 degC for 24 hr; settings: MTCC 11, 24 h, read-out: IZ
[15] = test system: Chromobacterium violaceum; assay: Antibacterial activity against Chromobacterium violaceum MTCC 2656 assessed as inhibition zones at 300 ug/disk at 37 degC for 24 hr; settings: MTCC 2656, 24 h, read-out: IZ
Bacillus subtilis [16] = assay: Antibacterial activity against Bacillus subtilis MTCC 441 assessed as inhibition zones at 300 ug/disk at 37 degC for 24 hr; settings: MTCC 441, 24 h, read-out: IZ
Candida albicans [17] = assay: Antifungal activity against Candida albicans ATCC 10231 assessed as growth inhibition at 37 degC for 48 hr; settings: ATCC 10231, 48 h
Pseudomonas aeruginosa [18] = assay: Antibacterial activity against Pseudomonas aeruginosa MTCC 741 assessed as inhibition zones at 300 ug/disk at 37 degC for 24 hr; settings: MTCC 741, 24 h, read-out: IZ
Klebsiella aerogenes [19] = assay: Antibacterial activity against Enterobacter aerogenes MTCC 39 assessed as inhibition zones at 300 ug/disk at 37 degC for 24 hr; settings: MTCC 39, 24 h, read-out: IZ
Trichophyton rubrum [20] = assay: Antifungal activity against Trichophyton rubrum IFO 9185 assessed as growth inhibition at 37 degC for 48 hr
[21] = test system: Trichophyton mentagrophytes; assay: Antifungal activity against Trichophyton mentagrophytes IFO 40996 assessed as growth inhibition at 37 degC for 48 hr
Caenorhabditis elegans = assay: Nematicidal activity against Caenorhabditis elegans assessed as immobility; settings: read-out: LD50 (the source's name)

COc1ccc(Cc2ccc(OC)c(C3SC4C(=NN(Cc5ccccc5)C4c4ccc(F)cc4)N3c3ccc([N+](=O)[O-])cc3)c2)cc1C1SC2C(=NN(Cc3ccccc3)C2c2ccc(F)cc2)N1c1ccc([N+](=O)[O-])cc1 (stereo unspecified)
MBC [1]: 12.5 µg/mL (≈ 11.4 µM) | MIC [1]: 6.25 µg/mL (≈ 5.72 µM) | zone of inhibition at 300 µg/disc (Staphylococcus aureus [2]): 19 mm | MBC (Pseudomonas aeruginosa [3]): 50 µg/mL (≈ 45.7 µM) | MIC (Pseudomonas aeruginosa [3]): 12.5 µg/mL (≈ 11.4 µM) | MBC (Aspergillus fumigatus [4]): inactive | MIC (Aspergillus fumigatus [4]): inactive | MBC (Klebsiella aerogenes [5]): 25 µg/mL (≈ 22.9 µM) | MIC (Klebsiella aerogenes [5]): 12.5 µg/mL (≈ 11.4 µM) | zone of inhibition at 300 µg/disc (Trichophyton rubrum [6]): 11 mm | zone of inhibition at 300 µg/disc (Aspergillus fumigatus [7]): 16 mm | zone of inhibition at 300 µg/disc (Candida albicans [8]): 19 mm | MBC (Bacillus subtilis [9]): 12.5 µg/mL (≈ 11.4 µM) | MIC (Bacillus subtilis [9]): 6.25 µg/mL (≈ 5.72 µM) | LC50 [10]: 190 µg/mL (≈ 174 µM) | zone of inhibition at 300 µg/disc [11]: 13 mm | MBC [12]: 50 µg/mL (≈ 45.7 µM) | MIC [12]: 12.5 µg/mL (≈ 11.4 µM) | MBC (Staphylococcus aureus [13]): 50 µg/mL (≈ 45.7 µM) | MIC (Staphylococcus aureus [13]): 12.5 µg/mL (≈ 11.4 µM) | zone of inhibition at 300 µg/disc [14]: 21 mm | zone of inhibition at 300 µg/disc [15]: 13 mm | zone of inhibition at 300 µg/disc (Bacillus subtilis [16]): 15 mm | MBC (Candida albicans [17]): 25 µg/mL (≈ 22.9 µM) | MIC (Candida albicans [17]): 12.5 µg/mL (≈ 11.4 µM) | zone of inhibition at 300 µg/disc (Pseudomonas aeruginosa [18]): 10 mm | zone of inhibition at 300 µg/disc (Klebsiella aerogenes [19]): 19 mm | MBC (Trichophyton rubrum [20]): inactive | MIC (Trichophyton rubrum [20]): inactive | MBC [21]: inactive | MIC [21]: inactive | LC50 (Caenorhabditis elegans): 190 µg/mL (≈ 174 µM)

COc1ccc(Cc2ccc(OC)c(C3SC4C(=NN(c5ccccc5)C4c4ccc(F)cc4)N3c3ccc([N+](=O)[O-])cc3)c2)cc1C1SC2C(=NN(c3ccccc3)C2c2ccc(F)cc2)N1c1ccc([N+](=O)[O-])cc1 (stereo unspecified)
MBC [1]: 50 µg/mL (≈ 46.9 µM) | MIC [1]: 25 µg/mL (≈ 23.5 µM) | zone of inhibition at 300 µg/disc (Staphylococcus aureus [2]): 20 mm | MBC (Pseudomonas aeruginosa [3]): 25 µg/mL (≈ 23.5 µM) | MIC (Pseudomonas aeruginosa [3]): 6.25 µg/mL (≈ 5.87 µM) | MBC (Aspergillus fumigatus [4]; HIC 6094, 48 h): 50 µg/mL (≈ 46.9 µM) | MIC (Aspergillus fumigatus [4]; HIC 6094, 48 h): 12.5 µg/mL (≈ 11.7 µM) | MBC (Klebsiella aerogenes [5]): 25 µg/mL (≈ 23.5 µM) | MIC (Klebsiella aerogenes [5]): 12.5 µg/mL (≈ 11.7 µM) | zone of inhibition at 300 µg/disc (Trichophyton rubrum [6]): 10 mm | zone of inhibition at 300 µg/disc (Aspergillus fumigatus [7]): 11 mm | zone of inhibition at 300 µg/disc (Candida albicans [8]): 8 mm | MBC (Bacillus subtilis [9]): 25 µg/mL (≈ 23.5 µM) | MIC (Bacillus subtilis [9]): 12.5 µg/mL (≈ 11.7 µM) | LC50 [10]: 800 µg/mL (≈ 751 µM) | zone of inhibition at 300 µg/disc [11]: 9 mm | MBC [12]: 12.5 µg/mL (≈ 11.7 µM) | MIC [12]: 6.25 µg/mL (≈ 5.87 µM) | MBC (Staphylococcus aureus [13]): 25 µg/mL (≈ 23.5 µM) | MIC (Staphylococcus aureus [13]): 6.25 µg/mL (≈ 5.87 µM) | zone of inhibition at 300 µg/disc [14]: 22 mm | zone of inhibition at 300 µg/disc [15]: 11 mm | zone of inhibition at 300 µg/disc (Bacillus subtilis [16]): 21 mm | MBC (Candida albicans [17]): 25 µg/mL (≈ 23.5 µM) | MIC (Candida albicans [17]): 12.5 µg/mL (≈ 11.7 µM) | zone of inhibition at 300 µg/disc (Pseudomonas aeruginosa [18]): 11 mm | zone of inhibition at 300 µg/disc (Klebsiella aerogenes [19]): 24 mm | MBC (Trichophyton rubrum [20]; IFO 9185, 48 h): 25 µg/mL (≈ 23.5 µM) | MIC (Trichophyton rubrum [20]; IFO 9185, 48 h): 6.25 µg/mL (≈ 5.87 µM) | MBC ([21]; IFO 40996, 48 h): 12.5 µg/mL (≈ 11.7 µM) | MIC ([21]; IFO 40996, 48 h): 12.5 µg/mL (≈ 11.7 µM) | LC50 (Caenorhabditis elegans): 620 µg/mL (≈ 582 µM)

COc1ccc(N2N=C3C(SC(c4cc(Cc5ccc(OC)c(C6SC7C(=NN(c8ccc(OC)cc8)C7c7ccc(F)cc7)N6c6ccc(C)cc6)c5)ccc4OC)N3c3ccc(C)cc3)C2c2ccc(F)cc2)cc1 (stereo unspecified)
MBC [1]: 12.5 µg/mL (≈ 11.8 µM) | MIC [1]: 6.25 µg/mL (≈ 5.88 µM) | zone of inhibition at 300 µg/disc (Staphylococcus aureus [2]): 26 mm | MBC (Pseudomonas aeruginosa [3]): 25 µg/mL (≈ 23.5 µM) | MIC (Pseudomonas aeruginosa [3]): 12.5 µg/mL (≈ 11.8 µM) | MBC (Aspergillus fumigatus [4]; HIC 6094, 48 h): 50 µg/mL (≈ 47 µM) | MIC (Aspergillus fumigatus [4]; HIC 6094, 48 h): 25 µg/mL (≈ 23.5 µM) | MBC (Klebsiella aerogenes [5]): 25 µg/mL (≈ 23.5 µM) | MIC (Klebsiella aerogenes [5]): 25 µg/mL (≈ 23.5 µM) | zone of inhibition at 300 µg/disc (Trichophyton rubrum [6]): 13 mm | zone of inhibition at 300 µg/disc (Aspergillus fumigatus [7]): 15 mm | zone of inhibition at 300 µg/disc (Candida albicans [8]): 9 mm | MBC (Bacillus subtilis [9]): 25 µg/mL (≈ 23.5 µM) | MIC (Bacillus subtilis [9]): 25 µg/mL (≈ 23.5 µM) | LC50 [10]: 950 µg/mL (≈ 893 µM) | zone of inhibition at 300 µg/disc [11]: 12 mm | MBC [12]: 50 µg/mL (≈ 47 µM) | MIC [12]: 50 µg/mL (≈ 47 µM) | MBC (Staphylococcus aureus [13]): 25 µg/mL (≈ 23.5 µM) | MIC (Staphylococcus aureus [13]): 25 µg/mL (≈ 23.5 µM) | zone of inhibition at 300 µg/disc [14]: 15 mm | zone of inhibition at 300 µg/disc [15]: 17 mm | zone of inhibition at 300 µg/disc (Bacillus subtilis [16]): 15 mm | MBC (Candida albicans [17]): 25 µg/mL (≈ 23.5 µM) | MIC (Candida albicans [17]): 25 µg/mL (≈ 23.5 µM) | zone of inhibition at 300 µg/disc (Pseudomonas aeruginosa [18]): 18 mm | zone of inhibition at 300 µg/disc (Klebsiella aerogenes [19]): 20 mm | MBC (Trichophyton rubrum [20]; IFO 9185, 48 h): 12.5 µg/mL (≈ 11.8 µM) | MIC (Trichophyton rubrum [20]; IFO 9185, 48 h): 12.5 µg/mL (≈ 11.8 µM) | MBC ([21]; IFO 40996, 48 h): 25 µg/mL (≈ 23.5 µM) | MIC ([21]; IFO 40996, 48 h): 12.5 µg/mL (≈ 11.8 µM) | LC50 (Caenorhabditis elegans): 870 µg/mL (≈ 818 µM)

Reference: ChEMBL document CHEMBL3045223, “Synthesis, nematicidal and antimicrobial properties of Bis-[4-methoxy-3-[3-(4-fluorophenyl)-6-(4-methylphenyl)-2(aryl)-tetrahydro-2H-pyrazolo[3,4-d]thiazol-5-yl]phenyl]methanes” (2009)
